Assay [1] addresses Somatostatin receptor type 4 (Homo sapiens, UniProt P31391). Briefly: Inhibition of radiolabeled somatostatin-14 binding to human recombinant SSTR4.
Assay [2] concerns the target Somatostatin receptor type 5 (Homo sapiens, UniProt P35346). Put plainly: Inhibition of radiolabeled somatostatin-14 binding to human recombinant SSTR5.

Sequence of Somatostatin receptor type 5 (P35346 whole entry): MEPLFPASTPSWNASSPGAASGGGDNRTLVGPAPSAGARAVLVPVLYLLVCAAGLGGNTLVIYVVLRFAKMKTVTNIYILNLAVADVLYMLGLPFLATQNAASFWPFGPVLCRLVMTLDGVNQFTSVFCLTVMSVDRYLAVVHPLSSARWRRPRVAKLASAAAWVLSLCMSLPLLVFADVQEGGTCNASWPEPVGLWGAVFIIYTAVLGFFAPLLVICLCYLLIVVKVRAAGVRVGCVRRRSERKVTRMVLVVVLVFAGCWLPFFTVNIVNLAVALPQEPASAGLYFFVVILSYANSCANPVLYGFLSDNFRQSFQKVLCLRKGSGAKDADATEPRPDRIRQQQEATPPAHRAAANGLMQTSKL
Sequence of Somatostatin receptor type 4 (P31391 whole entry): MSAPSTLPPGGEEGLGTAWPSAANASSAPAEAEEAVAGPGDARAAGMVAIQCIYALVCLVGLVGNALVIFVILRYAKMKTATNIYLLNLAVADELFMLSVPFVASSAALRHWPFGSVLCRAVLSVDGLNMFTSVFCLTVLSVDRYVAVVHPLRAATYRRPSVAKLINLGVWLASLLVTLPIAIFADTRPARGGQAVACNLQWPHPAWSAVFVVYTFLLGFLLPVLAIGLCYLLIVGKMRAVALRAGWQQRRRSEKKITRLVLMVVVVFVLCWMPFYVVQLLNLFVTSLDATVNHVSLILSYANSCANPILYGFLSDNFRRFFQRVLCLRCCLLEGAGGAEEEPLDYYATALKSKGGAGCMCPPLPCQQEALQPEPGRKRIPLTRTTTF

In general, Ki refers to a measure of affinity in units of concentration, obtained from inhibition or displacement. In the case of `NCCCCC[C@@H]1[C@@H](O)[C@H](O)[C@@H](O)CN1Cc1ccc2ccccc2c1`, the values for the Ki entry in assay [1] and in assay [2] (read-out: Ki) were “Not Active” and 34 µM, respectively.
As for `NCCCCCOC[C@@H]1[C@@H](O)[C@H](O)[C@@H](O)CN1CCc1c[nH]c2ccccc12`, the values for the Ki in assay [1] (read-out: Ki) and in assay [2] were 3.2 µM and “Not Active”, respectively.
In the case of `CC(=O)O[C@H]1[C@H](OC(C)=O)[C@@H](CCCCCN)N(Cc2ccc3ccccc3c2)C[C@@H]1OC(C)=O`, the values for the Ki in assay [1] (read-out: Ki) and in assay [2] (read-out: Ki) were 5.4 µM and 7.7 µM, respectively.
On to `NCCCCC[C@@H]1[C@@H](OCc2ccccc2)[C@H](OCc2ccccc2)[C@@H](OCc2ccccc2)CN1Cc1ccc2ccccc2c1`, for which the Ki in assay [1] (read-out: Ki) was 1.9 µM; in assay [2] (read-out: Ki) it was 2 µM.

The values are drawn from ChEMBL document CHEMBL3588750 (Medchemcomm, 2014).
